In PubChem BioAssay AID1053132 (The Scripps Research Institute Molecular Screening Center, 2014) one finds IC50 data, which are given here for 12 compounds.

Active and inactive are the calls of the source. No rule for the calls is given here.

This experiment has as its target methionyl-tRNA synthetase (Trypanosoma brucei brucei). Put plainly: inhibition of trypanosomal methionyl-tRNA synthetase – biochemical, luminescence, dose response, round 3, late-stage follow-up (AID 1053132). The conditions noted are these: recombinant T. brucei MetRS, luminescence (ATP consumption).
On to `CCN(CC)C(=O)C(=O)c1cn(CC(=O)Nc2cc(Oc3ccccc3OC)cc(C(F)(F)F)c2)c2ccccc12`, for which the concentration for half-maximal inhibition (IC50) (in general, the concentration needed to halve the response being measured) was 161 nM.
For `CCN(CC)C(=O)C(=O)c1cn(CC(=O)Nc2cc(Oc3ccc(F)cc3)cc(C(F)(F)F)c2)c2ccccc12`, the IC50 was 188 nM.
Take `O=C(Cn1cc(C(=O)C(=O)NCc2ccccc2)c2ccccc21)Nc1cc(Oc2ccccc2)cc(C(F)(F)F)c1`: the IC50 result is “inactive”.
Consider `CCN(CC)C(=O)C(=O)c1cn(CC(=O)Nc2cc(Oc3ccc(OC)cc3)cc(C(F)(F)F)c2)c2ccccc12`, for which the IC50 was 168 nM.
`O=C(Cc1ccc(Nc2nc3ccc(Br)cc3[nH]2)cc1)NCCc1cccs1`: the IC50 result was “inactive”.
Then `CCN(CC)C(=O)C(=O)c1cn(CCNc2cccc(C(F)(F)F)c2)c2ccccc12`, with > 119000 nM (inactive); and `CCN(CC)C(=O)C(=O)c1cn(CC(=O)Nc2cccc(C(F)(F)F)c2)c2ccccc12`, with 128 nM.
On to `CCN(CC)C(=O)C(=O)c1cn(CC(=O)Nc2cc(Oc3ccccc3)cc(C(F)(F)F)c2)c2ccccc12`, for which the IC50 is 58.1 nM.
Consider `CCN(CC)C(=O)Cc1cn(CC(=O)Nc2cccc(C(F)(F)F)c2)c2ccccc12`, for which the IC50 is > 119000 nM (inactive).
Turning to `Nc1c(Cl)ncnc1Nc1ccc(C(=O)O)cc1`, the IC50 is 2540 nM.
Take `CCN(CC)C(=O)C(=O)c1cn(CCNc2cc(Oc3ccccc3)cc(C(F)(F)F)c2)c2ccccc12`: the IC50 entry was “inactive”.
Then `CCN(CC)C(=O)C(=O)c1cn(CC(=O)Nc2cc(Oc3ccccc3F)cc(C(F)(F)F)c2)c2ccccc12`, with 133 nM.
